Columns and labels:
Assay in all cases: relative viability (nuclei count vs DMSO), 5 days (fraction); higher = more cells survive
[1] = compound: C1=CC=C(C(=C1)C2=CC=C(C=C2)C3=CSC4=C3C(=C(C(=O)N4)C#N)O)O + COc1cccc2cc(-c3nc([C@H]4CC[C@H](C(=O)O)CC4)n4ncnc(N)c34)[nH]c12 [OSI-027] (partner 0.5 µM)
Method in brief: (§1)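 After 5 days of treatment, lung cancer cells in 1536-well plates were fixed and stained in a single step (final 0.05% Triton X-100, 1% formaldehyde, 1 ug/ml Hoechst) and their nuclei counted on 4× images. Treatment had been applied by pin tool the day after seeding as one drug alone or as a fixed anchor-drug dose with five library-drug doses (not always all listed) in √10 steps. Relative viability is the nuclei count of treated wells divided by that of vehicle wells, and values are medians of duplicate plates.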

[2] = compound: CC1=CN2C(=O)C=C(N=C2C(=C1)C(C)NC3=CC=CC=C3)N4CCOCC4 [TGX 221] + COc1cccc2cc(-c3nc([C@H]4CC[C@H](C(=O)O)CC4)n4ncnc(N)c34)[nH]c12 [OSI-027] (partner 0.5 µM)
Method in brief: as §1

[3] = compound: C1=CC=C(C(=C1)C2=CC=C(C=C2)C3=CSC4=C3C(=C(C(=O)N4)C#N)O)O + O=C(CCCCCCC(=O)Nc1ccccc1)NO [Vorinostat] (partner 1 µM)
Method in brief: as §1

[4] = compound: O=C(CCCCCCNC(=O)c1cnc(N(c2ccccc2)c2ccccc2)nc1)NO [Ricolinostat] + Cc1nc(NC(=O)N2CCC[C@H]2C(N)=O)sc1-c1ccnc(C(C)(C)C(F)(F)F)c1 [Alpelisib] (partner 2 µM)
Method in brief: as §1

Cell Line	relative viability ([1]; first compound 0.08 µM)	relative viability ([1]; first compound 0.253 µM)	relative viability ([1]; first compound 0.8 µM)	relative viability ([1]; first compound 2.53 µM)	relative viability ([1]; first compound 8 µM)	relative viability ([2]; first compound 0.08 µM)	relative viability ([2]; first compound 0.253 µM)	relative viability ([2]; first compound 0.8 µM)	relative viability ([2]; first compound 2.53 µM)	relative viability ([2]; first compound 8 µM)	relative viability ([3]; first compound 0.08 µM)	relative viability ([3]; first compound 0.253 µM)	relative viability ([3]; first compound 0.8 µM)	relative viability ([3]; first compound 2.53 µM)	relative viability ([3]; first compound 8 µM)	relative viability ([4]; first compound 0.08 µM)	relative viability ([4]; first compound 0.253 µM)	relative viability ([4]; first compound 0.8 µM)	relative viability ([4]; first compound 2.53 µM)
NCI-H2228	0.6	0.785	0.576	0.491	0.372	0.654	0.522	0.638	0.453	0.463	0.555	0.557	0.648	0.524	0.36	0.555	0.984	0.722	0.791
NCI-H2347	0.454	0.572	0.348	0.419	0.378	0.463	0.321	0.376	0.29	0.296	0.507	0.59	0.55	0.539	0.568	0.889	1.01	0.987	0.963
NCI-H2405	0.648	0.656	0.607	0.679	0.65	0.609	0.627	0.664	0.658	0.589	0.983		0.956	0.955	0.999	0.524	0.805	0.889	1.08
NCI-H3122	0.836	1.07	1.09	1.33	0.774	0.874	0.929	1	0.864	0.963	1	0.992	1.14	1.09	0.89	0.514	0.942	0.785	0.964
PC-3 [JPC-3]	0.637	0.777	0.704	0.93	0.719	0.756	0.775	0.788	0.751	0.806	0.809	0.909	0.758	0.658	0.662	0.941	0.996	0.948	0.909

Source: the supplement of paper PMC10307832
